Assay results as given in patent US7030236B2, “Antisense oligonucleotides tarageting folate receptor alpha, and the use thereof” (priority 2001, dated 2006).

What was measured:
Format in all cases: cell-based, human
αhFR mRNA = test: Northern analysis of αhFR mRNA in KB cells; settings: oligonucleotide treatment over night
Excerpt: Expression of αhFR is known to be elevated in cancer. In particular, increased αhFR expression is found in 90% of human epithelial ovarian malignancies and is associated with a poor disease prognosis. It is possible that over expression of αhFR confers a growth survival advantage in ovarian cancer cells, since folates are involved in numerous cellular processes, including DNA and RNA synthesis.
Northern Analysis. KB cells were maintained over night in growth media containing sense or antisense unmodified DNA oligonucleotides at the indicated concentrations. Total RNA was isolated (Promega, Madison, Wis.) and samples containing 20 μg of total cellular RNA were resolved on a 1% agarose/0.66M formaldehyde/0.023 3-(N-morpholino) propansulfonic acid gel. The RNA's were transferred to a nitrocellulose membrane (Schleicher and Schuell, Portran, Keene, N.H.) and then hybridized to a random ^32P-labeled αhFR cDNA probe as described previously.

KB cells [1] = test: KB cell viability after oligonucleotide treatment, total protein content by Bradford assay; settings: compared to S-6 control
Description: The effect of AS-6 on the viability of cultured KB cells was evaluated (FIG. 3). […] The decrease in cell viability upon AS-6 treatment correlates well with the decrease in newly synthesized αhFR expression, as determined in FIG. 2B.
Cell Viability Experiments. Stable transfectants of pRc/CMV αhFR-S or pRc/CMV ahFR-AS constructs were achieved by the calcium phosphate method using the Stratagene Eukaryotic Transfection kit (La Jolla, Calif.) and selected in 500 μg/ml G418. Phosphorothioated-modified αhFR sense (S-6) and antisense (AS-6) DNA oligonucleotides were transfected into 6×10^4 KB cells by incubating oligonucleotides in 1 ml of serum-free media for 6 hrs. Transfections were terminated by the addition of 1 ml of serum-containing low-folate media. Total protein content was assessed 36 hours later by Bradford assay (Biorad, Hercules, Calif.).

T47D = test: XTT cell survival after Tf-liposome-mediated oligonucleotide transfection, T47D
Description: (§1) FIGS. 10A–10B: FIGS. 10A and 10B depict the effect of various concentrations of αhFR AS-6 oligonucleotide (A) and S-6 oligonucleotide (B) on survival of cultured human breast cancer cells. End-modified phosphorothioated oligonucleotides were transfected into 2×10^4 cells at the indicated concentrations for 6 hrs using a Tf-liposome-mediated delivery complex. Cell survival was assessed 48 hrs after transfection by XTT assay.
(§2) To determine the effect of αhFR antisense oligonucleotide, on the survival of cultured breast cancer cells, we transfected AS6 oligonucleotide and S6 oligonucleotide at various concentrations via the Tf-liposome-mediated gene delivery system.

MDA-MB-231 = test: XTT cell survival after Tf-liposome-mediated oligonucleotide transfection, MDA-MB-231; settings: MDA-MB-231, end-modified phosphorothioated oligo, 6 hrs transfection, XTT at 48 hrs
Description: as §1, §2

MDA-MB-435 = test: XTT cell survival after Tf-liposome-mediated oligonucleotide transfection, MDA-MB-435; settings: MDA-MB-435, end-modified phosphorothioated oligo, 6 hrs transfection, XTT at 48 hrs
Description: as §1, §2

MDA-MB-435 cells = test: Chemosensitization to doxorubicin, XTT assay; settings: 500 nM oligo, doxorubicin 24 hrs after transfection, XTT after 72 hrs
Description: FIG. 11: FIG. 11 depicts chemosensitization of MDA-MB-435 breast cancer cells after combination treatment with αhFR AS6 oligonucleotide and doxorubicin. MDA-MB-435 cells were plated at 2×10^4 cells/well and transfected with 500 nM of αhFR AS6 or S6 end-modified phosphorothioated oligonucleotide. After 24 hrs, cells were incubated with media containing doxorubicin at the indicated concentrations. Cell survival was determined by XTT assay after 72 hrs.
To determine whether or not αhFR antisense oligonucleotide sensitizes breast cancer cells to chemotherapy, the following experiment was carried out. 500 nM of AS6 oligonucleotide or S6 oligonucleotide was transfected into MDA-MB-435 cells and treated with varying concentrations of doxorubicin, twenty-four hours after transfection. Cell survival was determined after 72 hrs by XTT assay and the degree of sensitization was calculating by determining the ratio of IC50 values of the combined treatment relative to that of the S6 oligonucleotide and untreated controls. In FIG. 11, chemosensitization of MDA-MD-435 cells by AS6 oligonucleotide was about 5 fold (IC50 S6/IC50 AS6=5) relative to the sense control and about 10 fold (IC50 UT/IC50 AS6=10) relative to the untreated control.

KB cells [2] = test: KB cell viability after cytofectin transfection of ribozymes, Cell Counting Kit-8 colorimetric assay
Description: The viability of KB cells transfected with wild type or control mutant and sense ribozymes was assessed by colormetric assay. […] (FIG. 6A). […] Approximately 75% of the initial transfected ribozyme amounts disappeared after 1 hour. The quick half-life of ribozyme integrity may explain the unexpected lowered effect of αhFR ribozymes versus antisense oligonucleotides on KB cell survival.
In vitro synthesized wild type, mutant or sense-oriented ribozymes were transfected into 6×10^4 KB cells with cytofectin (Glen Research, Rockville, Md.), according to manufacturers instruction. Transfections were terminated by replacing media with 1 ml of serum-containing low-folate media. Cell viability was quantitated after 36 hours by the Cell Counting Kit-8 (Dojindo, Gaithersburg, Md.). For ribozyme decay analysis, in vitro synthesized ribozymes were radiolabeled with [α-^32P]-rCTP and rGTP using the riboprobe kit (Promega, Madison, Wis.). Radiolabeld ribozymes were transfected by the cytofectin method as described above. Total RNA was extracted at the indicated time points using the RNeasy mini kit (Quiagen, Valencia, Calif.), fractionated on a 6% sequencing gel and visualized by autoradiography. Amounts of intact internalized ^32P-labeled ribozyme were determined using the NIH image software.

Molecule: AS-1: antisense 21-mer DNA TGTTGTCATCCGCTGAGCCAT, αhFR open reading frame 21–1, SEQ ID NO. 2 (antisense TGTTGTCATCCGCTGAGCCAT; unmodified DNA)
- αhFR mRNA by Northern analysis (αhFR mRNA): remained unaffected

Molecule: AS-2: antisense 21-mer DNA AGGAGGTCAGCTGAGCAGCCA, αhFR open reading frame 780–760, SEQ ID NO. 3 (antisense AGGAGGTCAGCTGAGCAGCCA; unmodified DNA)
- αhFR mRNA by Northern analysis (αhFR mRNA): remained unaffected

Molecule: AS-6: antisense 21-mer DNA GCTCTTGCAGGTGTAGGAGGT, αhFR ORF 462–442, SEQ ID NO. 4; unmodified or phosphorothioated (antisense GCTCTTGCAGGTGTAGGAGGT; DNA, backbone and methylation of C not given here; phosphorothioate modified, described as end-modified)
- αhFR mRNA by Northern analysis (αhFR mRNA): remained unaffected
- decrease in overall protein content (KB cells [1]; 10 μM phosphorothioate-modified oligo): 20%
- decrease in overall protein content (KB cells [1]; 50 μM phosphorothioate-modified oligo): 60%
- IC50 (T47D; T47D, end-modified phosphorothioated oligo, 6 hrs transfection, XTT at 48 hrs): 633 nM
- IC50 (MDA-MB-231): 600 nM
- IC50 (MDA-MB-435): 416 nM
- chemosensitization to doxorubicin, IC50 S6/IC50 AS6 (MDA-MB-435 cells; relative to sense control): about 5 fold
- chemosensitization to doxorubicin, IC50 UT/IC50 AS6 (MDA-MB-435 cells; relative to untreated control): about 10 fold

Molecule: S6: sense control 21-mer ACCTCCTACACCTGCAAGAGC, 442–462 (sense ACCTCCTACACCTGCAAGAGC; DNA, backbone and methylation of C not given here; S-6 used both unmodified and phosphorothioate-modified, form not tied to measurement, further chemistry not fully specified) [reference compound]
- effect on survival of model breast cancer cell lines (T47D; stated for the breast cancer cell lines together (T47D, MDA-MB-231, MDA-MB-435), versus AS6): significantly less effect

B1: Rz 187/210 WT: wild type hammerhead ribozyme targeted to 5′ region of αhFR open reading frame; encoding DNA in Table II (nucleic acid)
DNA 1: CCCGTCGACAATGCCTGCTGTTTCGTCCTCACGGACTCATCAGCTACCAACACAAGCTTCCC
DNA 2: GGGCAGCTGTTACGGACGACAAAGCAGGAGTGCCTGAGTAGTCGATGGTTGTGTTCGAAGGG
modifications: target site or template, no part of the molecule; chemistry not given here; one strand is listed 3' to 5'
- decrease in cell survival (KB cells [2]; KB cells, compared to control mutant and sense ribozymes): approximately 60%

B2: Rz 187/210 MUT: mutant control ribozyme, G in the catalytic structure changed to A (nucleic acid)
DNA 1: CCCGTCGACAATGCCTGCTGTTTCGTCCTCACGGATTCATCAGCTACCAACACAAGCTTCCC
DNA 2: GGGCAGCTGTTACGGACGACAAAGCAGGAGTGCCTAAGTAGTCGATGGTTGTGTTCGAAGGG
modifications: target site or template, no part of the molecule; chemistry not given here; one strand is listed 3' to 5'
notes: mutant control ribozyme, G in the catalytic structure changed to A
- effect on cell survival (KB cells [2]; KB cells transfected with ribozyme): little, if any effect
